Results on 1 compound are retold here after patent US4330532A, “Angiotensin-II analogues with antagonizing effects, containing an α-hydroxycarboxylic acid residue in position 8, and a process for the preparation thereof” (Richter Gedeon Vegyeszeti Gyar Rt., priority 1980, dated 1982).

For the assay, the system named is hypertension provoked by angiotensin-II (Hypertensin (CIBA) infusion). Description: Antagonistic (hypotensive) effect on Hypertensin-infused narcotized male cats. The assay is classed as in vivo, cat. How it is done: The antagonistic effects of the new compounds of the formula (I) were investigated on narcotized male cats. After treating the animals with a ganglion blocking agent and bisecting the cervical vagus nerves on both sides, the animals were treated with an infusion of Hypertensin (CIBA) at a rate of 0.5 μg/kg/min. When the blood pressure of the animals reached a steady, increased level, the substance to be tested was administered either intravenously or subcutaneously in physiological saline solution or as an aqueous solution which also contained a carrier. The blood pressure drop was measured in mm Hg units, and the extent of decrease was expressed in percents related to the value before treatment. The statistical evaluation was performed on the basis of the blood pressure differences, by Student's single sample "t" test. The term "duration of effect" denotes the period elapsed until the observation of the last still significant (p±5%) blood pressure difference.

Setting [1] is: s.c., carboxymethyl cellulose (CMC) carrier, dose 100 μg/kg.
[2] abbreviates: s.c., carboxymethyl cellulose (CMC) carrier, dose 200 μg/kg.
Where [3] appears, read: s.c., gelatine carrier, dose 200 μg/kg.
The mark [4] stands for this setting: s.c., physiological saline, dose 100 μg/kg.
The mark [5] stands for this setting: s.c., physiological saline, dose 200 μg/kg.

In the case of `CNCC(=O)N[C@@H](CCCN=C(N)N)C(=O)N[C@H](C(=O)N[C@@H](Cc1ccc(O)cc1)C(=O)N[C@H](C(=O)N[C@@H](Cc1cnc[nH]1)C(=O)N1CCC[C@H]1C(=O)N[C@@H](C)C(=O)O)C(C)C)C(C)C` [Saralasin, (Sar^1, Ala^8)-angiotensin-II], the “blood pressure drop, extent of decrease in percents related to the value before treatment” value turned out to be 32% (i.v., dose 10 μg/kg); 23% under setting [1]; 28% under setting [2]; 23% under setting [3]; 29% under setting [4]; 24% under setting [5]. Moreover, the duration of effect by setting is: (i.v., dose 10 μg/kg) 15 min; under setting [1], 45 min; under setting [2], 90 min; under setting [3], “.phi”; under setting [4], 60 min; under setting [5], 45 min.
